For this assay, the target named is T1, AqpZ (Escherichia coli, UniProt P60844).
T1 construct: C-terminal GFP-His tag cut by TEV protease; expressed in E. coli BL21(DE3); DDM-purified, C8E4 for native MS; homotetramer about 102 kDa with lipids (17-, m/z 6000)
T1 sequence (P60844 1-231): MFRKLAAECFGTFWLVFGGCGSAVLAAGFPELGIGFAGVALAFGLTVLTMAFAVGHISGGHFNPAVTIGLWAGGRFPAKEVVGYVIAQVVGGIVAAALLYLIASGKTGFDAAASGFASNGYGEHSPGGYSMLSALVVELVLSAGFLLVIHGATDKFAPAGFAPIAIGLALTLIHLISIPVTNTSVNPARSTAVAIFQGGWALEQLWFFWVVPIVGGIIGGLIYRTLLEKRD
Kind of assay: native MS with single lipid standard. It counts as binding. To be noted: 200 mM ammonium acetate pH 7.0, 2xCMC C8E4.

This is an account of results in article PMC12424025, “Deep Structural Characterization of Protein-Bound Lipids via Native MS and Ultraviolet Photodissociation” (Analytical Chemistry, 2025).

Each structure is given as a SMILES string.

For `CCCCCCCC/C=C\CCCCCCCC(=O)OC[C@H](COP(=O)(O)OCC(O)CO)OC(=O)CCCCCCC/C=C\CCCCCCCC` (some centres unmarked) [DOPG], the “native MS with single lipid standard” value is “The resulting native mass spectra confirmed that all three lipid classes bind to the membrane protein”.

`CCCCCCCC/C=C\CCCCCCCC(=O)OC[C@H](COP(=O)(O)OCC(O)COP(=O)(O)OC[C@@H](COC(=O)CCCCCCC/C=C\CCCCCCCC)OC(=O)CCCCCCC/C=C\CCCCCCCC)OC(=O)CCCCCCC/C=C\CCCCCCCC` (some centres unmarked) [CDL 18:1(9Z)]: the “native MS with single lipid standard” value is “The resulting native mass spectra confirmed that all three lipid classes bind to the membrane protein”.
